Measured values published in US20100047321A1, “SILVER ANTIMICROBIAL COMPOSITION AND USE” (priority 2008, published 2010).

How the values were obtained:
[1] = Settling test of redispersed aqueous silver chloride/gelatin dispersion (silver assay of top samples); type: physicochemical; conditions: redispersal and testing after storage at 40° C. for 5 days
Method: Samples were analyzed for silver content using an Automated Thioacetamide Titration system (ATT) to assay silver ion (Ag^+) present in silver containing compounds by a potentiometric titration. Silver chloride grains, which have been solubilized in a solution of thiosulfate, sodium hydroxide and gelatin, are titrated with thioacetamide to precipitate silver sulfide. The end-point of the titration is monitored potentiometrically using a silver sulfide-coated silver billet indicator electrode.
[…] To test for settling, the stirring was stopped and a 10 ml portion was removed from the top of the aliquot (time=0 sample).
Additional samples were taken in a similar manner from the unstirred aliquot at 10 minute, 30 minute, and 60 minute intervals. By comparing the theoretical silver chloride concentration (measured on a sample taken from the vigorously stirred dispersion at the conclusion of the precipitation), assuming a perfectly dispersed solution, with that determined by the ATT assay for each sample taken from the top of the aliquot, it is possible to determine the amount of AgCl product that had settled in a given time interval.
The following TABLE I contains the settling data for Invention Examples 1-7 and Comparative Examples 1-10. The settling is evaluated by comparing the silver assay results for samples taken from the top of the aliquot at time=0 or later, to the theoretical silver concentration, such that percent settle is defined by the expression (Theoretical [Ag]−Silver Assay(time))/(Theoretical [Ag]))×100.

Description for pKa of additive: The storage stability additives used in the compositions of this invention are N-heterocyclic acids each having a pKa of from about 4 to about 9 or from about 4.5 to about 8.5, or from about 4.8 to about 8.0.

Molecule	pKa (pKa of additive)	Effectiveness of additive in reducing settling [1]	Additive pKa (pKa of additive)
CC(=O)Nc1cccc(-n2[nH]nnc2=S)c1 [APMT, acetamide, N-(3-(2,5-dihydro-5-thioxo-1H-tetrazol-1-yl)phenyl)-, reference compound]	3.3	ineffective	
Cc1nc2ncnn2c(O)c1Br [Br-TAI, (1,2,4)triazolo(1,5-a)pyrimidin-7-ol, 6-bromo-5-methyl-]	4.8	remarkably effective	
O=[N+]([O-])c1cc(Cl)cc2[nH]nnc12 [CN-BZT, 6-chloro-4-nitro-1H-benzotriazole]	6	remarkably effective	
CSc1nc2nc(C)cc(O)n2n1 [SMe-TAI, (1,2,4)triazolo(1,5-a)pyrimidin-7-ol, 5-methyl-2-(methylthio)-]	6.2	remarkably effective	
O=C1NS(=O)(=O)c2ccccc21 [Saccharin, saccharin, reference compound]	1.8	ineffective	1.8
O=C1CCC(=O)N1 [Succinimide, succinimide, reference compound]	9.4	ineffective	
Cc1cc(O)n2ncnc2n1.[Na] [TAI, (1,2,4)triazolo(1,5-a)pyrimidin-7-ol, 5-methyl-, sodium salt]	6.2	remarkably effective	
O=c1cc[nH]c(=O)[nH]1 [Uracil, uracil, reference compound]	9.2	ineffective	
O=c1[nH][nH]c(=O)[nH]1 [Urazole, urazole]	5.8	remarkably effective	
O=c1[nH]c(=O)c2[nH]c(=O)[nH]c2[nH]1 [Uric acid, uric acid]	5.8	remarkably effective	
methyl-1H-benzotriazole [Me-BZT]		remarkably effective	
